≈ marks a conversion by molar mass, not a printed value. Calls of active or inactive are those of the source. No cut-off for these calls is given here.
Tests used:
Pseudomonas aeruginosa [1] = assay: Antimicrobial activity against Pseudomonas aeruginosa ATCC 27853 after 20 hrs by CLSI protocol-based microdilution assay; type: functional; details: ATCC 27853, 20 h
Klebsiella pneumoniae [2] = assay: Antimicrobial activity against Klebsiella pneumoniae ATCC 43816 after 20 hrs by CLSI protocol-based microdilution assay; type: functional; details: ATCC 43816, 20 h
Escherichia coli = assay: Antimicrobial activity against Escherichia coli ATCC 25922 after 20 hrs by CLSI protocol-based microdilution assay; type: functional; details: ATCC 25922, 20 h
Klebsiella pneumoniae [3] = assay: Inhibition of LpxC in Klebsiella pneumoniae ATCC 43816 assessed as potentiation factor by measuring ratio of MIC of compound alone to MIC of compound in presence of rifampicin after 20 hrs by CLSI protocol-based microdilution assay
[4] = Lipophilicity, log D of the compound at pH 7.4; type: physicochemical; details: buffer
Klebsiella pneumoniae [5] = assay: Inhibition of LpxC in Klebsiella pneumoniae ATCC 43816 assessed as antibacterial activity after 20 hrs in presence of rifampicin by CLSI protocol-based microdilution assay
Klebsiella pneumoniae [6] = assay: Inhibition of LpxC in Klebsiella pneumoniae ATCC 43816 assessed as potentiation factor by measuring ratio of MIC of compound alone to MIC of compound in presence of vancomycin after 20 hrs by CLSI protocol-based microdilution assay
Klebsiella pneumoniae [7] = assay: Inhibition of LpxC in Klebsiella pneumoniae ATCC 43816 assessed as antibacterial activity after 20 hrs in presence of vancomycin by CLSI protocol-based microdilution assay
[8] = target: T1, UDP-3-O-acyl-N-acetylglucosamine deacetylase (Pseudomonas aeruginosa (strain ATCC 15692 / PAO1 / 1C / PRS 101 / LMG12228), UniProt P47205); assay: Binding affinity to Pseudomonas aeruginosa PAO1 NB52019 LpxC after 60 to 420 secs by SPR method
T1 sequence (P47205 whole entry): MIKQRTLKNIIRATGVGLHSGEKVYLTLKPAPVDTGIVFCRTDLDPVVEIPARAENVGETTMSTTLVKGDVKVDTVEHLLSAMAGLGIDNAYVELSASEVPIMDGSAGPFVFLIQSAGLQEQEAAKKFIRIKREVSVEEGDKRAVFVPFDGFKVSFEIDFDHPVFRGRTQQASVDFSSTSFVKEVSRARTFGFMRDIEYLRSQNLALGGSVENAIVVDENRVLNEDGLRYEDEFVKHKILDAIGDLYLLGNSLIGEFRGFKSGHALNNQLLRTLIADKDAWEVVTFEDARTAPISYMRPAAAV

Klebsiella pneumoniae [9] = assay: Antibacterial activity against Klebsiella pneumoniae infected in lung infection mouse model assessed as log reduction in bacterial load in lungs at 200 mg/kg, sc dosed every 6 hrs measured after 48 hrs post first treatment; type: functional, organism-based
Klebsiella pneumoniae [10] = assay: Antibacterial activity against Klebsiella pneumoniae infected in mouse model of lung infection assessed as reduction in bacterial load in lung at 200 mg/kg, sc dosed every 6 hrs and measured after 48 hrs post first treatment; type: functional, organism-based
Pseudomonas aeruginosa [11] = assay: Antimicrobial activity against Pseudomonas aeruginosa infected in mouse model of neutropenic thigh infection assessed reduction in bacterial levels in thigh at 160 mg/kg/day, sc administered 2 hrs post infection every 6 hrs for 24 hrs; type: functional, organism-based
[12] = Protein binding in rat plasma; type: ADME, cell-free; details: read-out: PPB (converted)
[13] = Half life in mouse at 60 mg/kg, iv; type: ADME, organism-based; details: in vivo
[14] = Clearance in rat at 5 mg/kg, iv; type: ADME, organism-based; details: in vivo
[15] = Protein binding in dog plasma; type: ADME, cell-free, Canis lupus familiaris; details: read-out: PPB (converted)
[16] = Protein binding in human plasma; type: ADME, cell-free; details: read-out: PPB (converted)
[17] = Half life in dog at 10 mg/kg, iv; type: ADME, organism-based, Canis lupus familiaris; details: in vivo
Klebsiella pneumoniae [18] = assay: Antibacterial activity against Klebsiella pneumoniae infected in mouse model of lung infection assessed as reduction in bacterial load in lung at 20 mg/kg, sc dosed every 6 hrs co-treated with 200 mg/kg vancomycin and measured after 48 hrs post first treatment (reference value: 4.5 log10CFU/g); type: functional
[19] = Solubility of the compound at pH 7.4; type: physicochemical; details: buffer
[20] = Volume of distribution at steady state in mouse at 60 mg/kg, iv; type: ADME, organism-based; details: in vivo, read-out: Vdss
Pseudomonas aeruginosa [21] = assay: Antimicrobial activity against Pseudomonas aeruginosa infected in mouse model of neutropenic thigh infection assessed reduction in bacterial levels in thigh at 105 mg/kg/day, sc administered 2 hrs post infection every 6 hrs for 24 hrs; type: functional, organism-based
[22] = Half life in rat at 5 mg/kg, iv; type: ADME, organism-based; details: in vivo
Klebsiella pneumoniae [23] = assay: Antibacterial activity against Klebsiella pneumoniae infected in mouse model of lung infection assessed as reduction in bacterial load in lung at 20 mg/kg, sc dosed every 6 hrs and measured after 48 hrs post first treatment; type: functional
[24] = Clearance in dog at 10 mg/kg, iv; type: ADME, organism-based, Canis lupus familiaris; details: in vivo
[25] = Protein binding in mouse plasma; type: ADME, cell-free; details: read-out: PPB (converted)
[26] = Solubility of the compound at pH 9; type: physicochemical; details: buffer
[27] = Clearance in mouse at 60 mg/kg, iv; type: ADME, organism-based; details: in vivo
[28] = Volume of distribution at steady state in rat at 5 mg/kg, iv; type: ADME, organism-based; details: in vivo, read-out: Vdss
[29] = Volume of distribution at steady state in dog at 10 mg/kg, iv; type: ADME, organism-based, Canis lupus familiaris; details: in vivo, read-out: Vdss

Row | Compound | MIC (Pseudomonas aeruginosa [1]) [µg/mL] | MIC (Klebsiella pneumoniae [2]) [µg/mL] | MIC (Escherichia coli) [µg/mL] | logD [4] | MIC (Klebsiella pneumoniae [5]) [µg/mL] | MIC (Klebsiella pneumoniae [7]) [µg/mL] | Kd [8] [nM] | other results
1 | C[C@@H](O)[C@H](NC(=O)c1ccc(C#Cc2ccc(CN3CCOCC3)cc2)cc1)C(=O)NO | 2 (≈ 4.57 µM) | 0.5 (≈ 1.14 µM) | 0.125 (≈ 0.286 µM) |  |  |  |  | 
2 | CO[C@H]1/C=C/O[C@@]2(C)Oc3c(C)c(O)c4c(O)c(c(/C=N/N5CCN(C)CC5)c(O)c4c3C2=O)NC(=O)/C(C)=C\C=C\[C@H](C)[C@H](O)[C@@H](C)[C@@H](O)[C@@H](C)[C@H](OC(C)=O)[C@@H]1C [RIFAMPIN] |  | 32 (≈ 38.9 µM) |  |  |  |  |  | 
3 | CC#Cc1ccc(N2C[C@H](C[C@](C)(C(=O)NO)S(C)(=O)=O)OC2=O)cc1 | 0.5 (≈ 1.31 µM) | 16 (≈ 42.1 µM) | 2 (≈ 5.26 µM) | 1.4 | 0.25 | 4 | 0.063 | fold change (FC) (Klebsiella pneumoniae [3]): 64; fold change (FC) (Klebsiella pneumoniae [6]): 4
4 | CC#Cc1ccc(C2=NO[C@@H](C[C@](C)(C(=O)NO)S(C)(=O)=O)C2)cc1 | 0.5 (≈ 1.37 µM) | 8 (≈ 22 µM) | 1 (≈ 2.74 µM) | 1.4 | 0.25 | 2 | 0.44 | fold change (FC) (Klebsiella pneumoniae [3]): 32; fold change (FC) (Klebsiella pneumoniae [6]): 4
5 | C/C=C/c1ccc(C2=NO[C@@H](C[C@](C)(C(=O)NO)S(C)(=O)=O)C2)cc1 | 1 (≈ 2.73 µM) | 16 (≈ 43.7 µM) | 2 (≈ 5.46 µM) | 2 |  |  | 0.3 | 
6 | C[C@@H](O)Cc1ccc(-c2ccc(N3C[C@H](C[C@](C)(C(=O)NO)S(C)(=O)=O)OC3=O)cc2)cc1 | 2 (≈ 4.2 µM) | 1 (≈ 2.1 µM) | 0.25 (≈ 0.525 µM) | 1.2 |  |  | 0.12 | 
7 | C[C@@](C[C@H]1CN(c2ccc(C3CC3)cc2)C(=O)O1)(C(=O)NO)S(C)(=O)=O | 2 (≈ 5.23 µM) | > 64 | 32 (≈ 83.7 µM) | 1.5 |  |  | 0.12 | 
8 | CN[C@H](CC(C)C)C(=O)N[C@H]1C(=O)N[C@@H](CC(N)=O)C(=O)N[C@H]2C(=O)N[C@H]3C(=O)N[C@H](C(=O)N[C@H](C(=O)O)c4cc(O)cc(O)c4-c4cc3ccc4O)[C@H](O)c3ccc(c(Cl)c3)Oc3cc2cc(c3O[C@@H]2O[C@H](CO)[C@@H](O)[C@H](O)[C@H]2O[C@H]2C[C@](C)(N)[C@H](O)[C@H](C)O2)Oc2ccc(cc2Cl)[C@H]1O [VANCOMYCIN] |  | > 128 |  |  |  |  |  | Activity (Klebsiella pneumoniae [9]): inactive; Activity (Klebsiella pneumoniae [10]): inactive
9 | C[C@@](C[C@H]1CN(c2ccc(-c3ccccc3)cn2)C(=O)O1)(C(=O)NO)S(C)(=O)=O | 2 (≈ 4.77 µM) | 32 (≈ 76.3 µM) | 2 (≈ 4.77 µM) | 1.8 |  |  | 0.12 | 
10 | C[C@@](C[C@H]1CN(c2ccc(C#CC3CC3)cc2)C(=O)O1)(C(=O)NO)S(C)(=O)=O | 0.5 (≈ 1.23 µM) | 1 (≈ 2.46 µM) | 0.125 (≈ 0.308 µM) | 1.9 | 0.06 | 0.25 |  | Activity (Pseudomonas aeruginosa [11]): Active; fraction unbound [12]: 0.11; half-life [13]: 330 min; clearance [14]: 24 mL/min/kg; fraction unbound [15]: 0.14; fraction unbound [16]: 0.14; half-life [17]: 42 min; Activity (Klebsiella pneumoniae [18]): 2.5 log10CFU/g; solubility [19]: 126 µg/mL (≈ 310 µM); Vd [20]: 1.6 L/kg; Activity (Pseudomonas aeruginosa [21]): Active; half-life [22]: 54 min; Activity (Klebsiella pneumoniae [23]): 4.5 log10CFU/g; clearance [24]: 26 mL/min/kg; fraction unbound [25]: 0.13; solubility [26]: > 20000 µg/mL; clearance [27]: 49 mL/min/kg; Vd [28]: 1 L/kg; Vd [29]: 0.8 L/kg
11 | CCCc1ccc(C2=NO[C@@H](C[C@](C)(C(=O)NO)S(C)(=O)=O)C2)cc1 | 1 (≈ 2.71 µM) | 16 (≈ 43.4 µM) | 4 (≈ 10.9 µM) | 1.7 |  |  | 0.2 | 
12 | CCCc1ccc(N2C[C@H](C[C@](C)(C(=O)NO)S(C)(=O)=O)OC2=O)cc1 | 0.5 (≈ 1.3 µM) | 32 (≈ 83.2 µM) | 4 (≈ 10.4 µM) | 1.6 | 1 | 8 | 0.17 | fold change (FC) (Klebsiella pneumoniae [3]): 32; fold change (FC) (Klebsiella pneumoniae [6]): 4
13 | C/C=C/c1ccc(N2C[C@H](C[C@](C)(C(=O)NO)S(C)(=O)=O)OC2=O)cc1 | 1 (≈ 2.61 µM) | 32 (≈ 83.7 µM) | 4 (≈ 10.5 µM) | 1.4 |  |  | 0.1 | 
14 | C[C@@](C[C@H]1CC(c2ccc(C#CC3CC3)cc2)=NO1)(C(=O)NO)S(C)(=O)=O | 1 (≈ 2.56 µM) | 0.5 (≈ 1.28 µM) | 0.125 (≈ 0.32 µM) | 2.2 | 0.03 | 0.125 | 0.17 | fold change (FC) (Klebsiella pneumoniae [3]): 16; fold change (FC) (Klebsiella pneumoniae [6]): 4
15 | C[C@@](C[C@H]1CC(c2ccc(Br)cc2)=NO1)(C(=O)NO)S(C)(=O)=O | 4 (≈ 9.87 µM) | > 64 | 32 (≈ 79 µM) | 1.2 |  |  | 2.6 | 
16 | C[C@@](C[C@H]1CN(c2ccc(-c3ccccc3)cc2)C(=O)O1)(C(=O)NO)S(C)(=O)=O | 1 (≈ 2.39 µM) | 4 (≈ 9.56 µM) | 0.25 (≈ 0.597 µM) | 2.3 |  |  | 0.026 | 
17 | C[C@@](C[C@H]1CN(c2ccc(Br)cc2)C(=O)O1)(C(=O)NO)S(C)(=O)=O | 0.5 (≈ 1.19 µM) | > 64 | > 64 | 1 |  |  | 0.21 | 
18 | CC(C)(O)[C@H]1C[C@H](C#Cc2ccc(N3C[C@H](C[C@](C)(C(=O)NO)S(C)(=O)=O)OC3=O)cc2)C1 | 1 (≈ 2.09 µM) | 1 (≈ 2.09 µM) | 0.5 (≈ 1.04 µM) | 1.6 | 0.5 | 1 | 0.2 | fold change (FC) (Klebsiella pneumoniae [3]): 2; fold change (FC) (Klebsiella pneumoniae [6]): 1
